Measured values as given in PubChem BioAssay AID274 (DTP/NCI, 2004).
“And” between values parts separate entries of the source, which are not always exact repeats. Identical values can stand only once. Toxic doses and inconclusive results are not listed. How the source made its calls: active means survival T/C of 150% or more; inactive means T/C below 125% in these data.

System: BDF1 mice, Lewis lung carcinoma iv, survival T/C
Assay: NCI In Vivo Anticancer Drug Screen. Data for tumor model Lewis Lung Carcinoma (intravenous) in B6D2F1 (BDF1) mice
Settings: endpoint: median survival time, higher = longer survival
Protocol: The antitumor activity of compounds was measured in mice bearing transplantable tumors. Survival or tumor size were measured and the results are expressed as the measurement made in the treated group (T) divided by the measurement made in the vehicle treated control group (C). The tumor model used in this assay is Lewis Lung Carcinoma (intravenous) in B6D2F1 (BDF1) mice

[1] = dose: 25.0 mg/kg/injection, schedule: Q01DX009 (ip), vehicle: saline with Tween-80
[2] = dose: 50.0 mg/kg/injection, schedule: Q01DX009 (ip), vehicle: saline with Tween-80
[3] = dose: 100.0 mg/kg/injection, schedule: Q01DX009 (ip), vehicle: saline with Tween-80
[4] = dose: 20.0 mg/kg/injection, schedule: Q01DX009 (ip), vehicle: Klucel (hydroxypropylcellulose) (HPC)
[5] = dose: 12.5 mg/kg/injection, schedule: Q01DX009 (ip), vehicle: saline with Tween-80
[6] = dose: 200.0 mg/kg/injection, schedule: Q01DX009 (ip), vehicle: saline with Tween-80
[7] = dose: 400.0 mg/kg/injection, schedule: Q01DX009 (ip), vehicle: saline with Tween-80
[8] = dose: 6.25 mg/kg/injection, schedule: Q01DX009 (ip), vehicle: Klucel (hydroxypropylcellulose) (HPC)
[9] = dose: 50.0 mg/kg/injection, schedule: Q01DX009 (ip), vehicle: Klucel (hydroxypropylcellulose) (HPC)
[10] = dose: 100.0 mg/kg/injection, schedule: Q01DX009 (ip), vehicle: Klucel (hydroxypropylcellulose) (HPC)

Measured: T/C

CCCCCCCCCCCCOP(N)(=O)OCCCCCCCCCCCC
inactive: [1] 97 % of control | [2] 93 % of control | [3] 91 % of control

COc1ccc(-c2c(C)c(C(=O)O)nc(-c3ccc4c(O)c(OC)c5c(c4n3)=NC(C)(C)N=5)c2N)c(O)c1OC
inactive: dose: 10.0 mg/kg/injection, schedule: Q01DX009 (ip), vehicle: saline with Tween-80 113 % of control | dose: 20.0 mg/kg/injection, schedule: Q01DX009 (ip), vehicle: saline with Tween-80 103 % of control | dose: 40.0 mg/kg/injection, schedule: Q01DX009 (ip), vehicle: saline with Tween-80 98 % of control

O=c1n(CC2CO2)c(=O)n(CC2CO2)c(=O)n1CC1CO1 (stereo unspecified)
inactive: dose: 6.25 mg/kg/injection, schedule: Q01DX009 (ip), vehicle: suspension in saline 105 % of control and 100 % of control | dose: 12.5 mg/kg/injection, schedule: Q01DX009 (ip), vehicle: suspension in saline 107 % of control and 101 % of control | dose: 25.0 mg/kg/injection, schedule: Q01DX009 (ip), vehicle: suspension in saline 121 % of control and 101 % of control

CC1CCC2(OC1)OC1CC3C4CCC5CC(O)CCC5(C)C4CCC3(C)C1C2C (stereo unspecified)
inactive: [4] 91 % of control

O=C1c2ccccc2C(=O)c2c3c(cc(NCCNCCO)c21)N(CCO)CCN3
inactive: dose: 50.0 mg/kg/injection, schedule: Q01DX009 (ip), vehicle: DMSO 108 % of control

CC(=O)O[C@H]1C(=O)[C@@]2(C)[C@H]([C@H](OC(=O)c3ccccc3)[C@]3(O)C[C@H](OC(=O)[C@H](O)[C@@H](NC(=O)c4ccccc4)c4ccccc4)C(C)=C1C3(C)C)[C@]1(OC(C)=O)CO[C@@H]1C[C@@H]2O
inactive: dose: 25.9 mg/kg/injection, schedule: Q04DX003 (ip), vehicle: Klucel (hydroxypropylcellulose) (HPC) 93 % of control | dose: 43.2 mg/kg/injection, schedule: Q04DX003 (ip), vehicle: Klucel (hydroxypropylcellulose) (HPC) 86 % of control

O=CN(SSN(C=O)C1CCCCC1)C1CCCCC1
inactive: [5] 114 % of control | [1] 108 % of control | [2] 99 % of control | [3] 95 % of control | [6] 101 % of control | [7] 87 % of control

CCOC(=O)CNC(=O)CCCCSc1ncnc2nc[nH]c12
inactive: [4] 102 % of control | dose: 40.0 mg/kg/injection, schedule: Q01DX009 (ip), vehicle: Klucel (hydroxypropylcellulose) (HPC) 106 % of control | dose: 80.0 mg/kg/injection, schedule: Q01DX009 (ip), vehicle: Klucel (hydroxypropylcellulose) (HPC) 98 % of control | dose: 160.0 mg/kg/injection, schedule: Q01DX009 (ip), vehicle: Klucel (hydroxypropylcellulose) (HPC) 98 % of control | dose: 320.0 mg/kg/injection, schedule: Q01DX009 (ip), vehicle: Klucel (hydroxypropylcellulose) (HPC) 105 % of control

CCCCCc1cc(/C=C2/N=C(c3ccc[nH]3)C=C2OC)[nH]c1C
inactive: dose: 0.25 mg/kg/injection, schedule: Q01DX009 (ip), vehicle: suspension in saline 94 % of control | dose: 0.5 mg/kg/injection, schedule: Q01DX009 (ip), vehicle: suspension in saline 100 % of control | dose: 1.0 mg/kg/injection, schedule: Q01DX009 (ip), vehicle: suspension in saline 103 % of control | dose: 2.0 mg/kg/injection, schedule: Q01DX009 (ip), vehicle: suspension in saline 103 % of control | dose: 4.0 mg/kg/injection, schedule: Q01DX009 (ip), vehicle: suspension in saline 106 % of control | dose: 8.0 mg/kg/injection, schedule: Q01DX009 (ip), vehicle: suspension in saline 109 % of control

C1CCC2[N-]CC3CCCCC3[N-]CC3CCCCC3[N-]CC3CCCCC3[N-]CC2C1.[Cu] (stereo unspecified)
inactive: dose: 0.78 mg/kg/injection, schedule: Q01DX009 (ip), vehicle: Klucel (hydroxypropylcellulose) (HPC) 106 % of control | dose: 3.13 mg/kg/injection, schedule: Q01DX009 (ip), vehicle: Klucel (hydroxypropylcellulose) (HPC) 112 % of control | [8] 113 % of control

N=[N+]=CC(=O)OCC(N)C(=O)O (stereo unspecified)
inactive: dose: 0.78 mg/kg/injection, schedule: Q01DX009 (ip), vehicle: saline 98 % of control | dose: 1.56 mg/kg/injection, schedule: Q01DX009 (ip), vehicle: saline 103 % of control | dose: 3.12 mg/kg/injection, schedule: Q01DX009 (ip), vehicle: saline 100 % of control | dose: 6.25 mg/kg/injection, schedule: Q01DX009 (ip), vehicle: saline 104 % of control | dose: 12.5 mg/kg/injection, schedule: Q01DX009 (ip), vehicle: saline 117 % of control

Nc1cc(=O)[nH][nH]1
inactive: [3] 99 % of control | [6] 91 % of control | [7] 95 % of control

O=CC(O)C(O)C(O)C(O)C(=O)O.[NH-]C1CCCCC1[NH-].[Pt+2] (stereo unspecified)
inactive: dose: 0.1 mg/kg/injection, schedule: Q01DX009 (ip), vehicle: suspension in saline 92 % of control | dose: 0.2 mg/kg/injection, schedule: Q01DX009 (ip), vehicle: suspension in saline 92 % of control | dose: 0.39 mg/kg/injection, schedule: Q01DX009 (ip), vehicle: suspension in saline 104 % of control | dose: 0.78 mg/kg/injection, schedule: Q01DX009 (ip), vehicle: suspension in saline 112 % of control | dose: 1.56 mg/kg/injection, schedule: Q01DX009 (ip), vehicle: suspension in saline 108 % of control

C(COCCOCC1CO1)OCCOCC1CO1 (stereo unspecified)
inactive: [1] 107 % of control | [2] 104 % of control | [3] 98 % of control | [6] 112 % of control

COc1ccc2[nH]c3c(c2c1)CCNC3CC(C)CCC=C(C)C (stereo unspecified)
inactive: [8] 116 % of control | dose: 12.5 mg/kg/injection, schedule: Q01DX009 (ip), vehicle: Klucel (hydroxypropylcellulose) (HPC) 98 % of control | dose: 25.0 mg/kg/injection, schedule: Q01DX009 (ip), vehicle: Klucel (hydroxypropylcellulose) (HPC) 102 % of control | [9] 95 % of control | [10] 107 % of control

OC(CBr)C(O)C(O)C(O)CBr (stereo unspecified)
inactive: [9] 117 % of control | [10] 109 % of control | dose: 200.0 mg/kg/injection, schedule: Q01DX009 (ip), vehicle: Klucel (hydroxypropylcellulose) (HPC) 103 % of control | dose: 400.0 mg/kg/injection, schedule: Q01DX009 (ip), vehicle: Klucel (hydroxypropylcellulose) (HPC) 111 % of control | dose: 800.0 mg/kg/injection, schedule: Q01DX009 (ip), vehicle: Klucel (hydroxypropylcellulose) (HPC) 97 % of control

CCC1(O)CC2CN(CCc3c([nH]c4ccccc34)C(C(=O)OC)(c3cc4c(cc3OC)N(C)C3C(O)(C(=O)NCCO)C(O)C5(CC)C=CCN6CCC43C65)C2)C1 (stereo unspecified)
inactive: dose: 0.6 mg/kg/injection, schedule: Q04DX003 (ip), vehicle: saline 96 % of control | dose: 1.0 mg/kg/injection, schedule: Q04DX003 (ip), vehicle: saline 101 % of control | dose: 1.67 mg/kg/injection, schedule: Q04DX003 (ip), vehicle: saline 101 % of control | dose: 216.0 micrograms/kg/injection, schedule: Q01DX009 (ip), vehicle: saline 111 % of control | dose: 360.0 micrograms/kg/injection, schedule: Q01DX009 (ip), vehicle: saline 111 % of control

COc1cc2c(c(OC)c1O)-c1ccc(OC)c(=O)cc1[C@@H](NC(=O)C(F)(F)F)CC2
inactive: dose: 0.62 mg/kg/injection, schedule: Q01DX009 (ip), vehicle: Klucel (hydroxypropylcellulose) (HPC) 101 % of control | dose: 1.25 mg/kg/injection, schedule: Q01DX009 (ip), vehicle: Klucel (hydroxypropylcellulose) (HPC) 87 % of control | dose: 2.5 mg/kg/injection, schedule: Q01DX009 (ip), vehicle: Klucel (hydroxypropylcellulose) (HPC) 88 % of control

COc1cccc2c1C(=O)c1c(O)c3c(c(O)c1C2=O)C[C@@](O)(C(=O)CO)C[C@@H]3OC1CC(N)CC(C)O1 (stereo partly specified)
inactive: dose: 0.18 mg/kg/injection, schedule: Q01DX009 (ip), vehicle: water 108 % of control | dose: 0.37 mg/kg/injection, schedule: Q01DX009 (ip), vehicle: water 112 % of control

O.O.[NH-]C1CCCCC1[NH-].[Pt+2] (stereo unspecified)
inactive: dose: 0.31 mg/kg/injection, schedule: Q01DX009 (ip), vehicle: dextrose 95 % of control | dose: 2.5 mg/kg/injection, schedule: Q01DX009 (ip), vehicle: dextrose 99 % of control | dose: 5.0 mg/kg/injection, schedule: Q01DX009 (ip), vehicle: dextrose 112 % of control | dose: 10.0 mg/kg/injection, schedule: Q01DX009 (ip), vehicle: dextrose 117 % of control

O=S(=O)(N=N/C=C1\C=CC=CN1O)c1cccs1
inactive: [5] 105 % of control | [1] 115 % of control | [2] 100 % of control | [3] 92 % of control

Clc1ccc2c(Cl)ncnc2c1
inactive: [2] 107 % of control | [3] 118 % of control | [6] 111 % of control
